ChEMBL document CHEMBL1201862, “PubChem BioAssay data set” (2004)
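Briefly, cells in 96-well plates were exposed to five compound concentrations for 48 h, and endpoints were estimated by linear interpolation. Here, GI50 denotes the concentration required for 50% inhibition of growth.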 Active and inactive are the calls of the source. Cut-off read from the data, not from the text of the source: active = GI50 up to about 1.1 µM and inactive = higher.

What was measured:
Assay in all cases: inhibition of tumour cell growth, NCI panel, 48 h
SNB-19 = tested on: SNB-19
HL-60 = tested on: HL-60
MOLT-4 = tested on: MOLT-4
SK-MEL-2 = tested on: SK-MEL-2
OVCAR-3 = tested on: OVCAR-3
HT-29 = tested on: HT-29
UACC-62 = tested on: UACC-62
HOP-62 = tested on: HOP-62
SK-MEL-5 = tested on: SK-MEL-5
COLO 205 = tested on: COLO 205
SK-MEL-28 = tested on: SK-MEL-28
OVCAR-5 = tested on: OVCAR-5
KM12 = tested on: KM12
SF-539 = tested on: SF-539
RXF 393 = tested on: RXF 393
LOX IMVI = tested on: LOX IMVI
UACC-257 = tested on: UACC-257
SW-620 = tested on: SW-620
PC-3 = tested on: PC-3
MCF7 = tested on: MCF7

Measured: GI50

CC1(O)CCC2(C#N)CCC1C2O (stereo not given)
inactive: SNB-19 > 100 µM | HL-60 > 100 µM | MOLT-4 > 100 µM | SK-MEL-2 > 100 µM | OVCAR-3 > 100 µM | HT-29 > 100 µM | UACC-62 > 100 µM | HOP-62 > 100 µM | SK-MEL-5 > 100 µM | COLO 205 33.9 µM | SK-MEL-28 > 100 µM | OVCAR-5 > 100 µM | KM12 > 100 µM | SF-539 > 100 µM | RXF 393 > 100 µM | LOX IMVI 23.2 µM | UACC-257 > 100 µM

NC(=S)NS(=O)(=O)c1ccc(Cl)cc1Cl
inactive: SW-620 > 100 µM | SNB-19 > 100 µM | HL-60 > 100 µM | MOLT-4 > 100 µM | SK-MEL-2 > 100 µM | OVCAR-3 > 100 µM | HT-29 > 100 µM | UACC-62 > 100 µM | HOP-62 > 100 µM | SK-MEL-5 > 100 µM | COLO 205 > 100 µM | SK-MEL-28 > 100 µM | OVCAR-5 > 100 µM | KM12 > 100 µM | SF-539 > 100 µM | RXF 393 > 100 µM | LOX IMVI > 100 µM | UACC-257 > 100 µM | PC-3 > 100 µM

CCCCCNC(=O)c1c(O)[nH]c(=S)[nH]c1=O
inactive: SW-620 > 100 µM | SNB-19 > 100 µM | HL-60 > 100 µM | MOLT-4 > 100 µM | SK-MEL-2 > 100 µM | OVCAR-3 > 100 µM | HT-29 > 100 µM | UACC-62 > 100 µM | HOP-62 > 100 µM | SK-MEL-5 > 100 µM | COLO 205 > 100 µM | SK-MEL-28 > 100 µM | OVCAR-5 > 100 µM | KM12 > 100 µM | SF-539 > 100 µM | LOX IMVI > 100 µM | UACC-257 > 100 µM

CC(=O)NC(CCCNC(=O)OCc1ccccc1)C(=O)O (stereo not given)
inactive: SW-620 > 100 µM | SNB-19 > 100 µM | MOLT-4 > 100 µM | SK-MEL-2 > 100 µM | OVCAR-3 > 100 µM | HT-29 > 100 µM | UACC-62 > 100 µM | HOP-62 > 100 µM | SK-MEL-5 > 100 µM | COLO 205 > 100 µM | SK-MEL-28 > 100 µM | OVCAR-5 > 100 µM | KM12 > 100 µM | SF-539 > 100 µM | RXF 393 > 100 µM | LOX IMVI > 100 µM | UACC-257 > 100 µM

O=C(CSc1nnc(-c2ccc(/N=C\c3ccc(Cl)cc3)cc2)o1)Nc1ccccc1
inactive: SW-620 44.9 µM | SNB-19 53 µM | HL-60 34.4 µM | MOLT-4 39.6 µM | SK-MEL-2 > 100 µM | HT-29 44.2 µM | UACC-62 73.8 µM | HOP-62 > 100 µM | SK-MEL-5 89.9 µM | COLO 205 > 100 µM | SK-MEL-28 43.6 µM | KM12 > 10 µM | RXF 393 33 µM | LOX IMVI 19.6 µM | UACC-257 > 100 µM

N#C/C(=C\c1ccc(C(O)P(=O)(O)O)cc1)C(N)=O (stereo not given)
inactive: SW-620 > 100 µM | SNB-19 > 100 µM | HL-60 6.01 µM | MOLT-4 24.9 µM | SK-MEL-2 > 100 µM | OVCAR-3 > 100 µM | HT-29 > 100 µM | UACC-62 7.83 µM | HOP-62 73.3 µM | SK-MEL-5 > 100 µM | COLO 205 > 100 µM | SK-MEL-28 > 100 µM | KM12 > 100 µM | SF-539 35.3 µM | LOX IMVI > 100 µM | UACC-257 > 100 µM

Cc1c(N2CCN(C)CC2)nc2ccc(Cl)cc2c1-c1ccccc1
inactive: SW-620 16.8 µM | SNB-19 25.2 µM | HL-60 12.7 µM | MOLT-4 > 10 µM | SK-MEL-2 17.3 µM | OVCAR-3 24.3 µM | HT-29 14.3 µM | UACC-62 15.7 µM | HOP-62 18.2 µM | SK-MEL-5 15.4 µM | COLO 205 16.1 µM | SK-MEL-28 18 µM | KM12 12.4 µM | SF-539 17.6 µM | RXF 393 15.9 µM | LOX IMVI 14.7 µM | UACC-257 17.9 µM

Cc1c(/C=N/NC(=O)c2ccccc2O)c(=O)n(-c2ccccc2)n1C
inactive: SW-620 > 100 µM | SNB-19 > 100 µM | HL-60 28.1 µM | MOLT-4 72.6 µM | SK-MEL-2 > 100 µM | OVCAR-3 > 100 µM | HT-29 > 100 µM | UACC-62 > 100 µM | HOP-62 58.3 µM | COLO 205 > 100 µM | SK-MEL-28 > 100 µM | KM12 > 100 µM | SF-539 > 100 µM | RXF 393 49.2 µM | LOX IMVI 45.4 µM | UACC-257 > 100 µM

COc1ccc(-c2cc(O)c3c(C)cc(C)nc3n2)cc1
inactive: SW-620 38.9 µM | SNB-19 49.4 µM | HL-60 15.8 µM | MOLT-4 16 µM | SK-MEL-2 43.1 µM | HT-29 20.3 µM | UACC-62 18.4 µM | HOP-62 26.8 µM | COLO 205 20.8 µM | SK-MEL-28 47.9 µM | OVCAR-5 > 100 µM | MCF7 15.3 µM | KM12 34.8 µM | SF-539 > 100 µM | RXF 393 49.7 µM | LOX IMVI 27.4 µM | UACC-257 25.9 µM

O=c1cc(O)ccn1C1C=C(CO)C(O)C1O (stereo not given)
inactive: SW-620 > 625 µM | SNB-19 > 625 µM | HL-60 183 µM | SK-MEL-2 > 625 µM | OVCAR-3 > 625 µM | HT-29 > 625 µM | UACC-62 > 625 µM | HOP-62 > 625 µM | SK-MEL-5 > 625 µM | SK-MEL-28 > 625 µM | MCF7 > 625 µM | KM12 > 625 µM | SF-539 > 625 µM | RXF 393 > 625 µM | LOX IMVI 455 µM

C[C@H]1COC2(c3ccccc3)CCC(=O)N12 (stereo not given in full)
inactive: SW-620 > 100 µM | SNB-19 > 100 µM | SK-MEL-2 > 100 µM | OVCAR-3 > 100 µM | HT-29 > 100 µM | UACC-62 > 100 µM | HOP-62 > 100 µM | SK-MEL-5 > 100 µM | COLO 205 > 100 µM | SK-MEL-28 > 100 µM | OVCAR-5 > 100 µM | KM12 > 100 µM | SF-539 > 100 µM | RXF 393 > 100 µM | LOX IMVI > 100 µM | UACC-257 > 100 µM

COc1cc(-c2ccc(/N=N/c3c(S(=O)(=O)O)cc4cc(S(=O)(=O)O)cc(N)c4c3O)c(OC)c2)ccc1/N=N/c1c(S(=O)(=O)O)cc2cc(S(=O)(=O)O)cc(N)c2c1O
inactive: SW-620 73.5 µM | SNB-19 > 100 µM | HL-60 29.9 µM | MOLT-4 > 82.6 µM | SK-MEL-2 > 100 µM | OVCAR-3 > 62.8 µM | HT-29 > 62.1 µM | HOP-62 > 100 µM | SK-MEL-5 > 100 µM | COLO 205 > 100 µM | SK-MEL-28 > 100 µM | OVCAR-5 > 100 µM | MCF7 > 100 µM | KM12 > 86.1 µM | SF-539 > 100 µM | RXF 393 > 100 µM | LOX IMVI > 90.6 µM | UACC-257 > 100 µM
